In ChEMBL document CHEMBL6087392, “Discovery of ZG-2305, an Orally Bioavailable Factor Inhibiting HIF Inhibitor for the Treatment of Obesity and Fatty Liver Disease” (J Med Chem, 2025):

Experiments:
[1] = target: Voltage-gated inwardly rectifying potassium channel KCNH2 (Homo sapiens, UniProt Q12809); test: Inhibition of human ERG at 30 uM; type: toxicity
[2] = target: T1, Cytochrome P450 1A2 (Homo sapiens, UniProt P05177); test: Inhibition of CYP1A2 in human liver microsomes using phenacetin as substrate preincubated for 5 mins followed by NADPH addition and measured after 10 mins by LC-MS/MS analysis; type: ADME, Microsome
T1 sequence (P05177 whole entry): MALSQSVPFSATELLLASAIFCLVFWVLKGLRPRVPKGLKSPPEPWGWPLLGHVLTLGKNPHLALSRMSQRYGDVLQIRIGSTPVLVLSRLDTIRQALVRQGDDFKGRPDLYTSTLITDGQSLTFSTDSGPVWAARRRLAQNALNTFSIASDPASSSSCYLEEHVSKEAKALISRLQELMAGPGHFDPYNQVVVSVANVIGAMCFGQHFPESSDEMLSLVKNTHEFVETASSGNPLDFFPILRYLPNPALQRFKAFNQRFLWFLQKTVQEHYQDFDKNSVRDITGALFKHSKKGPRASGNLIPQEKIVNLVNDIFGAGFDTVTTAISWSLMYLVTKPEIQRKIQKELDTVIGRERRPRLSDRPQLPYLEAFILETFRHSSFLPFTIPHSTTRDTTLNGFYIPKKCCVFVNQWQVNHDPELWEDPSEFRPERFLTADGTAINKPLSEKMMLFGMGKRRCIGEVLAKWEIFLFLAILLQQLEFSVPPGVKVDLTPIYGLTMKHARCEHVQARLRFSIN

[3] = target: Cytochrome P450 2C19 (Homo sapiens, UniProt P33261); test: Inhibition of CYP2C19 in human liver microsomes using S-mephenytoin as substrate preincubated for 5 mins followed by NADPH addition and measured after 45 mins by LC-MS/MS analysis; type: ADME, Microsome
Chain of Cytochrome P450 2C19 (P33261 whole entry): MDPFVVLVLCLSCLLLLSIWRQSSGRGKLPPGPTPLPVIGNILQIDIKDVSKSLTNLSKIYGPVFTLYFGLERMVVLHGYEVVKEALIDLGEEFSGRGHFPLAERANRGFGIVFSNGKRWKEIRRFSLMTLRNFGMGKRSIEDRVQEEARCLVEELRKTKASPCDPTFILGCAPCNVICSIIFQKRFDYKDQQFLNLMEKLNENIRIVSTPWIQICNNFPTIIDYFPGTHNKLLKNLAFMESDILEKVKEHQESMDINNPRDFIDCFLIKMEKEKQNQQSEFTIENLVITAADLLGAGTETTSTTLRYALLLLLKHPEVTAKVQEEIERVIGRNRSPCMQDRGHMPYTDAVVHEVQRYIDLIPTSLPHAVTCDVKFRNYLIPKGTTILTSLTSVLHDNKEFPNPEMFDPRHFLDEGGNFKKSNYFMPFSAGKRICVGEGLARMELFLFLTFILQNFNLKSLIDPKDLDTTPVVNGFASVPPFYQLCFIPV

[4] = target: Cytochrome P450 2C9 (Homo sapiens, UniProt P11712); test: Inhibition of CYP2C9 in human liver microsomes using diclofenac as substrate preincubated for 5 mins followed by NADPH addition and measured after 10 mins by LC-MS/MS analysis; type: ADME, Microsome
Chain of Cytochrome P450 2C9 (P11712 whole entry): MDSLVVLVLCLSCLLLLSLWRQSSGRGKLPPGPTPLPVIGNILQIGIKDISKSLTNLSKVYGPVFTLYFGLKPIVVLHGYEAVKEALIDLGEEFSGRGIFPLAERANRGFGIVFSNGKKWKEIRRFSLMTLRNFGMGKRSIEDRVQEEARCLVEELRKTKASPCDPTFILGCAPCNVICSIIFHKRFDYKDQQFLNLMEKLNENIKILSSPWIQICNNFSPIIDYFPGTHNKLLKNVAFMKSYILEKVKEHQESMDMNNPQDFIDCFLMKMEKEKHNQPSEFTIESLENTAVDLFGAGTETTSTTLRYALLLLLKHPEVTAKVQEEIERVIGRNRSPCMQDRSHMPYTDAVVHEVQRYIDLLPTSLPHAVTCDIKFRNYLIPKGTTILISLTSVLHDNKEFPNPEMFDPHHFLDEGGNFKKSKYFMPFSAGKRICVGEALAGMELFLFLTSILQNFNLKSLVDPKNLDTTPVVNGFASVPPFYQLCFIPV

[5] = target: Cytochrome P450 2D6 (Homo sapiens, UniProt P10635); test: Inhibition of CYP2D6 in human liver microsomes using bufuralol as substrate preincubated for 5 mins followed by NADPH addition and measured after 10 mins by LC-MS/MS analysis; type: ADME, Microsome
Chain of Cytochrome P450 2D6 (P10635 whole entry): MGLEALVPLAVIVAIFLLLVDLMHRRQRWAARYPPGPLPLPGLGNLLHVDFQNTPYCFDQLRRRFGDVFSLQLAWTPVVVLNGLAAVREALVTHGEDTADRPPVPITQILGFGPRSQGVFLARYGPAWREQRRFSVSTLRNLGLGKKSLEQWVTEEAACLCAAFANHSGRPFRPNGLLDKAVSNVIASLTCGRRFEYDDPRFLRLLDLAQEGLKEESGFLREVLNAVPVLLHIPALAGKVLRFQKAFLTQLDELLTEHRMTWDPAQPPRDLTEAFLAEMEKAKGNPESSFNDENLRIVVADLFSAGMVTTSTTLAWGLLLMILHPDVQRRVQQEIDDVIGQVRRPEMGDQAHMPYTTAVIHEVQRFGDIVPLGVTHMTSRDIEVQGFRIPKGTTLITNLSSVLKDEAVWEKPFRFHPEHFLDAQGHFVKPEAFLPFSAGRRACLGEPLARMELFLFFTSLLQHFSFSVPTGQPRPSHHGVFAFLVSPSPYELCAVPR

[6] = target: Cytochrome P450 3A4 (Homo sapiens, UniProt P08684); test: Inhibition of CYP3A4 in human liver microsomes using testosterone as substrate preincubated for 5 mins followed by NADPH addition and measured after 5 mins by LC-MS/MS analysis; type: ADME, Microsome
Chain of Cytochrome P450 3A4 (P08684 whole entry): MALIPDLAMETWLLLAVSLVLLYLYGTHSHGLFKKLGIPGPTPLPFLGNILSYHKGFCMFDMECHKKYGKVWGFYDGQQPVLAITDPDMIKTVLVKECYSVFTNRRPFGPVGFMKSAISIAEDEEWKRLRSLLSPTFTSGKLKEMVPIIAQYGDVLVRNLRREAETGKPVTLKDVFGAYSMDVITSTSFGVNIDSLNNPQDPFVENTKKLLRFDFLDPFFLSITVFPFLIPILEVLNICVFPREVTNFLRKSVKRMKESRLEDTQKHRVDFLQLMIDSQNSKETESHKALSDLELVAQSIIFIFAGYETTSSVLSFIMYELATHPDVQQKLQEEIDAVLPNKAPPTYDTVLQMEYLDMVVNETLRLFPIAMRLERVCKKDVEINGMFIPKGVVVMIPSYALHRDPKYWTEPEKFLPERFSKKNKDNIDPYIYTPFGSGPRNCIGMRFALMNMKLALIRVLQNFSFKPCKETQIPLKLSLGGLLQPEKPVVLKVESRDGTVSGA

[7] = Inhibition of FIH (unknown origin); design: species or system Homo sapiens
[8] = Metabolic stability in rat liver microsomes assessed as intrinsic clearance in presence of NADPH by LC-MS/MS analysis

Chain of Voltage-gated inwardly rectifying potassium channel KCNH2 (Q12809 whole entry): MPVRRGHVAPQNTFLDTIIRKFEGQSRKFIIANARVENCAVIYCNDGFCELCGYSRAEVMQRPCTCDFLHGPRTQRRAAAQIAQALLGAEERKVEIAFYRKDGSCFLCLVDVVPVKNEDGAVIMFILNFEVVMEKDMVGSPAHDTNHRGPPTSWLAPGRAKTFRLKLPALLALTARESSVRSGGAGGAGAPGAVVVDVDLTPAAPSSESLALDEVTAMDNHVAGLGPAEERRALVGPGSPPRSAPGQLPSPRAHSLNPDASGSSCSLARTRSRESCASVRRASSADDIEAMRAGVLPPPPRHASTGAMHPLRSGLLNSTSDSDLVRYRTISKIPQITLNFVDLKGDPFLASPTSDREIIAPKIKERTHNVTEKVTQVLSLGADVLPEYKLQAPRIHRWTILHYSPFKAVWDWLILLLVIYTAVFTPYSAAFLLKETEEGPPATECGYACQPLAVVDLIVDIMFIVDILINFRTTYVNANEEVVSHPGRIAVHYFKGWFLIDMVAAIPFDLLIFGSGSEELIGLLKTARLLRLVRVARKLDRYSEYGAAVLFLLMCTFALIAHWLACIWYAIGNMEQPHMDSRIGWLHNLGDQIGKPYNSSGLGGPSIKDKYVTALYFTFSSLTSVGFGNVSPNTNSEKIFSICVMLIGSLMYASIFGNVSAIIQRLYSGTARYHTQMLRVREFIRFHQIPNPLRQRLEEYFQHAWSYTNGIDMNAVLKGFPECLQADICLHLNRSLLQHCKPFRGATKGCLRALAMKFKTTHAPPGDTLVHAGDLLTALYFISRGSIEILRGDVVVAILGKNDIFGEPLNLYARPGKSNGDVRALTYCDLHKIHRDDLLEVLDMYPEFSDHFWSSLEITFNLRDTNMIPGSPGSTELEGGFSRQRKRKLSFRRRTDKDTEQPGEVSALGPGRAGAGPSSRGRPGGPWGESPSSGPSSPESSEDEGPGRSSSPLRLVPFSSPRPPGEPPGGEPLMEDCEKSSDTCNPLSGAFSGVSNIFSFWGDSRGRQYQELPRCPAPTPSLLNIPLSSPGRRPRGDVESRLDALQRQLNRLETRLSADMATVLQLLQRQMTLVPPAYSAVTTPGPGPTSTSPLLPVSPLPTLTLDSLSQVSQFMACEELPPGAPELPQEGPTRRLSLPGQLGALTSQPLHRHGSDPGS

In the case of `O=C(O)CNC(=O)c1ncc(-c2cc(-c3cc(Cl)cc(Cl)c3)no2)cc1O`, the “inhibition (INH)” value [1] is reported as “Not_active”, the IC50 [2] is reported as greater than 30 µM and the IC50 [3] is reported as greater than 30 µM. The IC50 [4] was greater than 30 µM, the IC50 [5] was greater than 30 µM and the IC50 [6] was greater than 30 µM.
Molecule `O=C(O)Cc1cs/c(=N\C(=O)C2CCN(S(=O)(=O)Cc3ccccc3)C2)n1O` (stereo not drawn) has an IC50 [7] of 0.28 µM.
`C[C@]12CC[C@H]3[C@@H](CCC4=CC(=O)CC[C@@]43C)[C@@H]1CC[C@@H]2O` [TESTOSTERONE] showed a microsomal CLint [8] of 1200 µL/min/mg.
